Data set [1] in a line: Preliminary toxicology study in mice (acute toxicity). The conditions noted are these: mouse, in vivo, po, p.o. (gavage), two weeks. The data set is classed as in vivo. As to the method: (§1) Preliminary toxicology study in mice: Mice were divided into four groups (n=10 in each), 500 mg/kg, 1,000 mg/kg or 2,000 mg/kg were administered respectively to three groups by gavage. Negative control is 0.5% CMC-Na. After two weeks, mice were sacrificed and tissue section of visceral organs were analyzed by Hematoxylin-Eosin staining

Data set [2] relates to mice. The description is as above. The data set is classed as in vivo. The following applies: p.o. As for the experimental part: as §1
A short description of data set [3]: PK profile: rat IV/PO study. Type of data set: in vivo. The conditions noted are these: oral administration.
Data set [4] concerns MCF-7 cells. Description: Cell apoptosis assay (TUNEL, PARP Western blot). The data set is classed as cell-based. The following applies: 48 hours, TUNEL and PARP Western blot. As to the method:
(§2) MCF-7 cells were treated with compound 18 (F200) and Roscovitine for 48 hours. Then the cells were analyzed by TUNEL assay and Western blot to detect apoptosis.
For TUNEL assay, cells were fixed and blocking in 6-well plate. DNA strand breaks were labeled by terminal deoxynucleotidyl transferase (TdT), which catalyzed polymerization of labeled nucleotides to free 3′-OH DNA ends in template-independent manner Fluorescein could be detected by anti-fluorescein antibody, conjugated with horse-radish-peroxidase (POD). After DAB reaction, stained cells were analyzed and counted under light microscope.
(§3) For Western blot, cells were harvested and lysed by lysis buffer. Western blot were performed with anti-PARP or anti-Pol[…] II antibody. During apoptosis, PARP is cleaved from a 113KD intact form into smaller 89KD and 24KD fragments.
(In general: A western blot detects proteins with antibodies after separation by electrophoresis.)

Data set [5] has as its system HT29. The data set can be described thus: Cellular effect in mammalian cells, HT29. The data set is classed as cell-based. The conditions noted are these: Homo sapiens, HT-29.
In data set [6] the test system is rabbit neutrophils. Description: Induction of neutrophil apoptosis (Annexin-V and PI staining). Type of data set: cell-based. As to the method:
• 1. Acquire 5-10 ml blood from adult rabbit • 2. Isolate neutrophils using RED BLOOD CELL LYSING BUFFER (SIGMA Cat No. R7757) and rabbit isolation kit (TBDsciences, Cat No. LZS11133) • 3. Treat neutrophils with reference compounds or SG45 for 15 h • 4. Apoptosis assay (Annexin-V and PI staining)
Harvest neutrophils by centrifugation at 1,000 rpm, 4° C. for 7 min Remove culture medium after centrifugation. Wash the cell pellet with pre-cooled PBS 200 l once. The re-suspend the cells with pre-cooled PBS 100 l. Incubate the cells with 2 l dye PI (BD Biosciences. Cat. No. 556463) and 2 l anti-Annexin V-PE (BD Biosciences. Cat. No. 556421) at room temperature under the darkness for 30 minutes. Remove the antibodies by centrifugation at 1,000 rpm, 4° C. for 2 min Resuspend the cells in 200 l pre-cooled PBS Finally, load the cell suspension to the FACS machine to acquire the staining results: […]

In data set [7] the test system is THP-1. Description: Cellular effect in mammalian cells, THP-1. Type of data set: cell-based. The conditions noted are these: Homo sapiens.
Data set [8] addresses T1, TSSK1 (Homo sapiens, UniProt Q9BXA7).
T1 sequence (Q9BXA7 1-367): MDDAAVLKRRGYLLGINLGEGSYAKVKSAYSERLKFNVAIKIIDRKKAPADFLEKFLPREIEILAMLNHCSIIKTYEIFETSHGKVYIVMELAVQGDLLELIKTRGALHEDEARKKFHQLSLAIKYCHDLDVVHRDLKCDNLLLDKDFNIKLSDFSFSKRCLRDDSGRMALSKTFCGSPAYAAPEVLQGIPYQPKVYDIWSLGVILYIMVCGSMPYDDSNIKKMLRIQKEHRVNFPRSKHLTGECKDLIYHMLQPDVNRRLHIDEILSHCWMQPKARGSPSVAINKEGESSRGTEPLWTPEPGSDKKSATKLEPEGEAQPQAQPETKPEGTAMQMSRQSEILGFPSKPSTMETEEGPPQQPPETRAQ
Description: Kinase assay TSSK1. The conditions noted are these: read-out: Target biochemical activity IC50, TSSK1.

Data set [9] relates to lung carcinoma (H460). Description: Tumor growth inhibition, H460 xenograft. The data set is classed as in vivo, SCID-bg mice. The following applies: 150 mg/kg, oral administration. As to the method: Animal: SCID-bg mice Tumor type: lung carcinoma (H460) Treatment: Single PO dose for 21 days (starting at day 7 following tumor inoculation) Endpoint: tumor volume and mean luciferase activity by Xenogen (Caliper) machine: SCID-bg mice were implanted with NCI-H460 cells at 5×10^6 cells/mouse on Day 0. Compound 18 treatment began on Day 7. […] In model group, the vehicle was used instead of compound 18. Tumor volume and mean luciferase activity by Xenogen technology were measured once per there days.

Data set [10] relates to L02. The data set can be described thus: Cellular effect in mammalian cells, L02. The data set is classed as cell-based. The conditions noted are these: Homo sapiens.
Data set [11] relates to CDK9's activity on Pol II phosphorylation. The data set can be described thus: Western blot of Pol II phosphorylation. The data set is classed as cell-based. The following applies: MCF-7 cells, 48 hours. As to the method: as §2, §3
Data set [12] relates to K562. Description: Cellular effect in mammalian cells, K562. Type of data set: cell-based. The conditions noted are these: Homo sapiens.
Data set [13] concerns HepG2. Description: Cellular effect in mammalian cells, HepG2. The following applies: Homo sapiens. Type of data set: cell-based.
Data set [14] deals with Jurkat. The data set can be described thus: Cellular effect in mammalian cells, Jurkat. Type of data set: cell-based. The conditions noted are these: Homo sapiens.
Data set [15] relates to MRC-5. The data set can be described thus: Cellular effect in mammalian cells, MRC-5. Type of data set: cell-based. The conditions noted are these: Homo sapiens, MRC5.
Data set [16] deals with HeLa. The data set can be described thus: Cellular effect in mammalian cells, HeLa. The data set is classed as cell-based. The conditions noted are these: Homo sapiens.
Data set [17] addresses SRC (Homo sapiens, UniProt P12931). The data set can be described thus: Kinase assay SRC. The conditions noted are these: read-out: Target biochemical activity IC50, SRC.
In data set [18] the test system is H460. Description: Cellular effect in mammalian cells, H460. Type of data set: cell-based. The following applies: Homo sapiens, NCI-H460.
In data set [19] the test system is MCF-7. Description: Cellular effect in mammalian cells, MCF-7. Type of data set: cell-based. The conditions noted are these: Homo sapiens, MCF7.
Data set [20] addresses CDK7 (Homo sapiens, UniProt P50613). The data set can be described thus: Kinase assay CDK7. The following applies: read-out: Target biochemical activity IC50, CDK7.
In data set [21] the test system is HCT116. The data set can be described thus: Cellular effect in mammalian cells, HCT116. The data set is classed as cell-based. The conditions noted are these: Homo sapiens, HCT-116.
Data set [22] deals with CDK2 (Homo sapiens, UniProt P24941). The data set can be described thus: Kinase assay CDK2. The conditions noted are these: read-out: Target biochemical activity IC50, CDK2.
For data set [23], the target named is Aurora B (Homo sapiens, UniProt Q96GD4). The data set can be described thus: Kinase assay Aurora B. The following applies: read-out: Target biochemical activity IC50, Aurora B.
Sequence of Aurora B (Q96GD4 whole entry): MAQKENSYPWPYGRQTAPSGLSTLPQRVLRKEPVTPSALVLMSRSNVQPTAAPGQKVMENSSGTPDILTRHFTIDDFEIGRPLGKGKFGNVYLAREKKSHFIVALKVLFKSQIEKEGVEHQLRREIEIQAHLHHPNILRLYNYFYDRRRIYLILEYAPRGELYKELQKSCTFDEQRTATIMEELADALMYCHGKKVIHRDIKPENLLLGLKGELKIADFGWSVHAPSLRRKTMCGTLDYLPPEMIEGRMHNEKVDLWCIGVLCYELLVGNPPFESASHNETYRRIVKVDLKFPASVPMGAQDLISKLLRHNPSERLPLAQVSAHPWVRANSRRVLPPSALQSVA

Entries after “also recorded” stand apart in the source; their conditions may differ.

The text below walks through data of patent US20140303163A1, “USE OF KINASE INHIBITORS IN PREVENTING AND TREATING INFLAMMATORY DISORDER” (priority 2011, published 2014).

As usually defined, the LD50 is the dose expected to kill half of the subjects tested. In general, IC50 refers to the midpoint of a concentration-inhibition curve.

Sequence of SRC (P12931 whole entry, species assumed): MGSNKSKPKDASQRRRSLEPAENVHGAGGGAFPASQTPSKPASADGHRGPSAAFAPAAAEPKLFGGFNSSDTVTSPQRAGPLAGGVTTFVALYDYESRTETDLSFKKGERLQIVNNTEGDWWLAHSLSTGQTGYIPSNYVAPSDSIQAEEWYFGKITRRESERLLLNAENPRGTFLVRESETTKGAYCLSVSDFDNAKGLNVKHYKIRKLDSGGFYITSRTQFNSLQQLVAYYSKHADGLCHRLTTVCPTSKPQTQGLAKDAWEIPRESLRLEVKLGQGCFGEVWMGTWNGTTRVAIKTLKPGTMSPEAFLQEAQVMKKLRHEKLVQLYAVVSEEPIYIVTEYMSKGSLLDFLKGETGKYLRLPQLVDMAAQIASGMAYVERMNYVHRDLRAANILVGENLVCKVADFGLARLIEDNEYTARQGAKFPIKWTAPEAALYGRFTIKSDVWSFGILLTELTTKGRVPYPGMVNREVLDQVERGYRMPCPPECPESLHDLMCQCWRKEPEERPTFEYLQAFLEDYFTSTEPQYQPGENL
Sequence of CDK7 (P50613 whole entry, species assumed): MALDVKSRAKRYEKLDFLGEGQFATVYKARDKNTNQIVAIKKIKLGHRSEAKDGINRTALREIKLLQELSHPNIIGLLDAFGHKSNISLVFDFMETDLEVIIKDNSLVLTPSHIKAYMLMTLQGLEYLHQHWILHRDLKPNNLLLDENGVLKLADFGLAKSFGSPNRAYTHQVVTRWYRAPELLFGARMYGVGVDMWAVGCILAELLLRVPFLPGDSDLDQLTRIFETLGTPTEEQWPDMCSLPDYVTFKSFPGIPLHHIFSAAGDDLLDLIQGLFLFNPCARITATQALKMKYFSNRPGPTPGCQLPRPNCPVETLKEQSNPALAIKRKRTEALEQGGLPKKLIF
Sequence of CDK7 (P51946 whole entry partner, species assumed): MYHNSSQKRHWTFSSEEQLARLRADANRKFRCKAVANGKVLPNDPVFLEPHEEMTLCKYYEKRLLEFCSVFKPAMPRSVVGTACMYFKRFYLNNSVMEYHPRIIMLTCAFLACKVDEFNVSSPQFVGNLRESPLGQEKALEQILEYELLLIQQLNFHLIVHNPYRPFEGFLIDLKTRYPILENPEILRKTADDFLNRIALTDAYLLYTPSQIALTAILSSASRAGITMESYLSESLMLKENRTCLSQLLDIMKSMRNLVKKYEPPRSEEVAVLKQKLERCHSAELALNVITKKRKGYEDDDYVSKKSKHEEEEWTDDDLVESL
Sequence of CDK7 (P51948 whole entry partner, species assumed): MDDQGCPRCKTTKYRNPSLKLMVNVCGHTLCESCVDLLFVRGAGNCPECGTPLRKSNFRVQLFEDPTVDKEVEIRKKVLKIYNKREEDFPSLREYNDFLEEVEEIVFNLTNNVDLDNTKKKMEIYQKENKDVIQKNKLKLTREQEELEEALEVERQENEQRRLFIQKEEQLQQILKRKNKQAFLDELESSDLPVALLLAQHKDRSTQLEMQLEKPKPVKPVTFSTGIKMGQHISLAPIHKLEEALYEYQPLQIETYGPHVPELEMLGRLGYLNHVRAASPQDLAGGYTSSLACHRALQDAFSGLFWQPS

For the compound `CCn1cc(-c2ccnc(Nc3cccc(S(N)(=O)=O)c3)n2)c2cccnc21` [Compound 18, 3-(4-(1-Ethyl-1H-pyrrolo[2,3-b]pyridin-3-yl)pyrimidin-2-ylamino)benzenesulfonamide], the LD50 at 2 weeks in [1] was over 2000 mg/kg. In addition, the MTD at 2 weeks in [1] is over 500 mg/kg. For the same compound, the Tolerability in animals result in [2] is reported as “excellent tolerability in animals”. Besides, in data set [3], the “Oral availability (in words)” value is “good oral availability”. In data set [4], the “Induction of cell apoptosis” value is reported as “induced apoptosis of cells; also recorded: induced cell apoptosis with dose-dependent manner”. In addition, the IC50 in data set [5] is 0.59 µM; in data set [7], 5.3 µM; in [8] it was over 10 µM; in data set [10] it was 4.3 µM. Also, the “Induction of neutrophil apoptosis compared with Roscovitine” value in data set [6] (15 h, FIG. 5) was “stronger capability in inducing neutrophil apoptosis than Roscovitine”. The “Apoptotic morphological changes of neutrophils” value in data set [6] (increasing dose (0.5, 2, 10 μM), FIG. 4) was “typical apoptotic morphological changes”. For the same compound, the “Tumor growth inhibition (in words)” value in data set [9] is listed as “able to inhibit tumor growth”. Further, the “Inhibition of CDK9's activity on Pol II phosphorylation” value in [11] is listed as “inhibited CDK9's activity on Pol II phosphorylation”.

As to `CCn1cc(-c2ccnc(Nc3cccc(O)c3)n2)c2ccnc(Cl)c21` [SG48, 3-(4-(7-Chloro-1-ethyl-1H-pyrrolo[2,3-c]pyridin-3-yl)pyrimidin-2-ylamino)phenol], the IC50 in data set [12] was 4.75 µM; in data set [5], 8.31 µM; in [13], 6.1 µM; in [7], over 10 µM; in data set [14], 1.92 µM; in [15], over 10 µM. For the same compound, the IC50 in [8] was 0.14 µM; in [16], 3.31 µM; in [17] it was over 10 µM; in data set [18], 4.66 µM; in data set [10], 8.1 µM; in data set [19], 9.4 µM. The IC50 in data set [20] was 3.28 µM; in [21], 4.67 µM; in [22] it was 0.004 µM.

For `CCn1cc(-c2ccnc(Nc3ccc(O)cc3)n2)c2ccnc(Cl)c21` [SG49, 4-(4-(7-Chloro-1-ethyl-1H-pyrrolo[2,3-c]pyridin-3-yl)pyrimidin-2-ylamino)phenol], the IC50 in data set [12] amounted to 3.52 µM; in data set [5], 8.59 µM; in data set [13] it was 5.55 µM; in [7] it was 3.68 µM; in data set [14] it was 0.61 µM; in [15], 5.82 µM. For the same compound, the IC50 in data set [16] is 2.69 µM; in [18], 2.95 µM; in data set [10], 7.34 µM; in [19] it was over 10 µM; in data set [21], 4.28 µM.

As to `CCn1cc(-c2ccnc(Nc3cccc(S(N)(=O)=O)c3)n2)c2ccnc(Cl)c21` [SG50, 3-(4-(7-Chloro-1-ethyl-1H-pyrrolo[2,3-c]pyridin-3-yl)pyrimidin-2-ylamino)benzenesulfonamide], the IC50 in [12] is 0.61 µM; in data set [5], 1.16 µM; in data set [23] it was over 10 µM; in data set [14], 0.4 µM; in [15] it was 3.36 µM; in [8], 0.52 µM. For the same compound, the IC50 is 0.23 µM in data set [16]; over 10 µM in data set [17]; 0.45 µM in data set [19]; over 10 µM in data set [20]; 0.28 µM in data set [21]; 0.004 µM in [22].

`CCCn1cc(-c2ccnc(Nc3cccc(S(N)(=O)=O)c3)n2)c2ccncc21` [SG51, 3-(4-(1-Propyl-1H-pyrrolo[2,3-c]pyridin-3-yl)pyrimidin-2-ylamino)benzenesulfonamide] registered a half-inhibitory concentration (IC50) in data set [14] of 0.005 µM.

`CCCn1cc(-c2ccnc(Nc3ccc(C)c(S(=O)(=O)N4CCOCC4)c3)n2)c2ccncc21` [SG52, N-(4-Methyl-3-(morpholinosulfonyl)phenyl)-4-(1-propyl-1H-pyrrolo[2,3-c]pyridin-3-yl)pyrimidin-2-amine] registered an IC50 in data set [10] of 1.4 µM.

Consider `CCCn1cc(-c2ccnc(Nc3cccc(S(N)(=O)=O)c3)n2)c2nc(Cl)cc(C)c21` [SG53, 3-(4-(5-Chloro-7-methyl-1-propyl-1H-pyrrolo[3,2-b]pyridin-3-yl)pyrimidin-2-ylamino)benzenesulfonamide], for which the IC50 in data set [5] stood at 0.25 µM; in [21], 3.56 µM.

As for `CCCn1cc(-c2ccnc(Nc3ccc(S(N)(=O)=O)cc3)n2)c2nc(Cl)cc(C)c21` [SG54, 4-(4-(5-Chloro-7-methyl-1-propyl-1H-pyrrolo[3,2-b]pyridin-3-yl)pyrimidin-2-ylamino)benzenesulfonamide], half-maximal inhibition in data set [10] (IC50) was put at 8.37 µM.
